Reference: patent US20130150384A1, “METHOD FOR TREATMENT OF BRAIN CANCERS” (KOREA INSTITUTE OF SCIENCE AND TECHNOLOGY, priority 2008, published 2013)
“Also recorded” adds a separate entry of the source.

What was measured:
GBM cells = test: Ca^2+ imaging of Fura2-AM loaded GBM cells; type: cell-based, human
Source text: Error bars represent SEM.
It is hypothesized that these molecules existing in the Ca^2+ release pathway serve as a potential molecular target in controlling migration and invasion of GBM.

glioma = test: Soft agar assay (colony formation); type: cell-based, human; conditions: 0.5, 1, 2, 5, or 10 mM caffeine, 14 to 17 days
Procedure: Cells (1×10^4) were seeded into 6-well plates in a soft agar (0.3%, Difco) overlaying a 0.6% base agar. […] Cells were incubated at 37 for 14 to 17 days to allow colonies to develop. Afterward colonies were stained with 0.05% cresyl violet and photographed. […] Each assay was done in triplicate (n=3)

[1] = system: human cell line (SH-SY5Y, ATCC); test: Block against bradykinin-induced intracellular Ca^2+ release in human glioblastoma cell line; type: cell-based; conditions: 10 mM caffeine, 10 μM bradykinin
HEK293T cell line = test: Block against TFLLR-induced intracellular Ca^2+ release in HEK293T; type: cell-based; conditions: 10 mM caffeine, 30 μM TFLLR
U87MG cells = test: Xenograft tumor growth assay; type: in vivo, athymic mice (Balb/c nu/nu); conditions: caffeine 1 mg/ml in drinking water from day 7, subcutaneous U87MG, 4 weeks
Procedure: Five-week-old athymic mice (Balb/c nu/nu) were obtained from Central Lab. Animal Inc. (Japan). For the xenograft tumor growth assay, U87MG cells (3×10^5 cells/150 ul PBS) were injected subcutaneously into the right flanks of the mice (n=5 to 10 mice per group), and the experiment was conducted in triplicate. […] The control animals were given distilled water. Tumor mass was estimated twice per week for 4 weeks, and tumor volumes were calculated by the formula: […]

human U87MG = test: Survival in orthotropic implantation model; conditions: 1 mg/ml caffeine containing drinking water, intracranial U87MG

Which “release of Ca^2+ from intracellular stores in response to activation of GPCRs and RTKs” value (GBM cells) does the source give for `COc1ccc2c(c1)CC[C@@H]1[C@@H]2CC[C@]2(C)[C@@H](NCCCCCCN3C(=O)C=CC3=O)CC[C@@H]12` [U73122] here?
The value was “completely inhibited”.

How did the “proliferation / anchorage-independent growth (colony numbers)” value (glioma) turn out when `Cn1c(=O)c2c(ncn2C)n(C)c1=O` [caffeine] was run?
Its value is “reduced the anchorage-independent growth of glioma in vitro, in a dose dependent manner; also recorded: significantly inhibited”.

And the “intracellular Ca^2+ release” value [1]?
Its value is “blocked”.

What about the “intracellular Ca^2+ release” value (HEK293T cell line) of the same compound?
Its value is “blocked”.

And the “increase of tumor mass” value (U87MG cells)?
The value was “significantly inhibited”.

What about the survival rate (human U87MG) of the same compound?
Its survival rate is “significantly increase the survival rate”.

`C/C=C(/C)C(=O)O[C@H]1C(C)=C2[C@H]([C@@H]1OC(=O)CCCCCCC)[C@@](C)(OC(C)=O)C[C@H](OC(=O)CCC)[C@@]1(O)[C@H]2OC(=O)[C@@]1(C)O` [thapsigargin] was tested. Which “subsequent increase in [Ca^2+]i by bradykinin after store depletion” value (GBM cells) did it give?
The value was “completely inhibited”.
